The values below come from patent US6608086B2, “Dihydropyridines and new uses thereof” (Synaptic Pharmaceutical Corporation, priority 1993, dated 2003).

Assay [1] addresses T1, α2A receptor (Homo sapiens, UniProt P08913).
T1 construct: host or cells: LM(tk-) cells, line L-α2A
T1 sequence (P08913 1-465): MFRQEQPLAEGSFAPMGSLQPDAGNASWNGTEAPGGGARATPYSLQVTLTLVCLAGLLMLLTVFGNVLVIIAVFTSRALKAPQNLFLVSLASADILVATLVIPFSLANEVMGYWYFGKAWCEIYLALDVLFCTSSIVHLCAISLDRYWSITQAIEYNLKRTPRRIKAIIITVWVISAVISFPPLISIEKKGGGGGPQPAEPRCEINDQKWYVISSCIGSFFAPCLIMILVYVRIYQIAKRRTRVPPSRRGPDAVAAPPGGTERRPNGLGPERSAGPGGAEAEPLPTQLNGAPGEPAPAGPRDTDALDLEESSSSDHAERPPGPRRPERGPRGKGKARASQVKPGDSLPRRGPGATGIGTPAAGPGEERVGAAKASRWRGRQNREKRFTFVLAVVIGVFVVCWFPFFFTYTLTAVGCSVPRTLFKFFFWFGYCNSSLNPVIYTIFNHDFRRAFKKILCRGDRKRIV
Description: Competition binding, [3H]rauwolscine, human α2A receptor. The gist of the method:
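Filter-bound [3H]rauwolscine (0.5 nM) was measured after equilibrium competition with test antagonists on lysates of LM(tk−) cells stably transfected with each human α2 subtype. Buffer: 25 mM glycylglycine, pH 7.6 at room temperature; 10 μM phentolamine gave nonspecific binding.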

Assay [2] addresses T2, α1A Human Adrenergic Receptor (Homo sapiens, UniProt P25100).
T2 construct: The entire coding region of α1A (1719 bp); expressed in transfected cells
T2 sequence (P25100 1-572): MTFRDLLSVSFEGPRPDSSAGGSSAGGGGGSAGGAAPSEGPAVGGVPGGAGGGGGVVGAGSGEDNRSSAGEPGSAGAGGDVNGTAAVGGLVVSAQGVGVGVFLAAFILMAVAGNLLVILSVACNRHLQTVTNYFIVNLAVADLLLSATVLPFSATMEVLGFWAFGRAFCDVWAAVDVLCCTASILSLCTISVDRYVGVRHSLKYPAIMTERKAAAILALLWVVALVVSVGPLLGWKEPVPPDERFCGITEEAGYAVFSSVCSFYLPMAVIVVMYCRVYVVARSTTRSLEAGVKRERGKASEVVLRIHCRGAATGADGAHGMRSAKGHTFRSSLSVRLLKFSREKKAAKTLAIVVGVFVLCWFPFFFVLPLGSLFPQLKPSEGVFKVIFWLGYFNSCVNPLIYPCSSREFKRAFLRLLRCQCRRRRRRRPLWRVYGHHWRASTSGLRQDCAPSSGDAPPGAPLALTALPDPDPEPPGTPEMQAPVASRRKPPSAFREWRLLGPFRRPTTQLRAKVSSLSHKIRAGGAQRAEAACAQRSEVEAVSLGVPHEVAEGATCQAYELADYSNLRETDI
The experiment in a line: Radioligand binding, [3H]prazosin, cloned human α1A adrenergic receptor. The gist of the method:
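Membranes from LM(tk−) cells transfected with human α1A were incubated with 0.5 nM [3H]prazosin in 50 mM Tris-HCl, 1 mM MgCl2, 0.1% ascorbic acid, pH 7.5, for 20 min at 37° C. Nonspecific binding was defined with 10 μM phentolamine. Bound ligand was separated by GF/B filtration.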

In assay [3] the target is T3, α1B Human Adrenergic Receptor (Homo sapiens, UniProt P35368).
T3 construct: The entire coding region of α1B (1563 bp); expressed in transfected cells
T3 sequence (P35368 1-520): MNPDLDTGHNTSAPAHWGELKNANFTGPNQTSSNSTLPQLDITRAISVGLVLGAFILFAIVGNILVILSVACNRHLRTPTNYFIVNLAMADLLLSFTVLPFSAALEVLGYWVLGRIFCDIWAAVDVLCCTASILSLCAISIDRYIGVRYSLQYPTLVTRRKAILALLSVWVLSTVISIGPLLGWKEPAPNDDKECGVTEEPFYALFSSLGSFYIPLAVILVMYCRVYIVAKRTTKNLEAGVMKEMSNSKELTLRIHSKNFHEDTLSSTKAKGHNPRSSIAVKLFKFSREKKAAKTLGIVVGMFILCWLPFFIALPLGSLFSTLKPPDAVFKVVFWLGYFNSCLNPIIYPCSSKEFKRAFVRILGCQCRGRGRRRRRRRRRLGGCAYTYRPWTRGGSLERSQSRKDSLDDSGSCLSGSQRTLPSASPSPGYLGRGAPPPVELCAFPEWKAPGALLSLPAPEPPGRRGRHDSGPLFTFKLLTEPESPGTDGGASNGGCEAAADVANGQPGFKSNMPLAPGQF
Description: Radioligand binding, [3H]prazosin, cloned human α1B adrenergic receptor. The conditions noted are these: cloned human receptor, LM(tk-) cell membranes, mean. The method, boiled down: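 Membranes from stably transfected LM(tk−) cells, resuspended in 50 mM Tris-HCl, 1 mM MgCl2, 0.1% ascorbic acid, pH 7.5, were incubated with 0.5 nM [3H]prazosin for 20 min at 37° C. Nonspecific binding defined with 10 μM phentolamine; bound ligand separated by GF/B filtration.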

Setting [4] is: [3H]rauwolscine, human receptor, LM(tk-) cell lysates, mean, read-out: PKi alpha-2 2a (converted).
The mark [5] stands for this setting: [3H]prazosin, cloned human receptor, LM(tk-) cell membranes, mean, read-out: PKi alpha-1 1a (converted).
[6] abbreviates: read-out: PKi alpha-1 1b (converted).
Where [7] appears, read: PKi alpha-1 1a, [3H]prazosin, cloned human receptor, LM(tk-) cell membranes, mean.

Read-outs that look alike come from different tables or passages of the source.

On to `CCC1=C(C(N)=O)C(c2ccc([N+](=O)[O-])cc2)C(C(=O)NCCCN2CCC(C(=O)OC)(c3ccccc3)CC2)=C(CCCCN)N1` (stereo not drawn) [Example 166, 2-(4-Aminobutyl)-5-carboxamido-6-ethyl-1,4-dihydro-3-{N-[3-(4-methoxycarbonyl-4-phenylpiperidin-1-yl)propyl]}carboxamido-4-(4-nitrophenyl)pyridine], for which the Ki is 1.86 µM in assay [1] (setting [4]), 2.34 µM in assay [2] (setting [5]) and 1.32 µM in assay [3] (setting [6]).
`COC(=O)C1=C(C)NC(CCCCN)=C(C(=O)NCCCN2CCC(c3ccccc3)(c3ccccc3)CC2)C1c1ccc([N+](=O)[O-])cc1` (stereo not drawn) [Example 170, 2-(4-Aminobutyl)-1,4-dihydro-5-methoxycarbonyl-6-methyl-4-(4-nitrophenyl)-3-{N-[3-(4,4-diphenylpiperidin-1-yl)propyl]}carboxamidopyridine]: the Ki in assay [1] is 6.17 µM; in assay [2] (PKi alpha-1 1a) it was 0.295 µM; in assay [3] (setting [6]) it was 0.105 µM.
Regarding `CCC1=C(C(N)=O)C(c2ccc([N+](=O)[O-])cc2)C(C(=O)NCCCN2CCC(c3ccccc3)(c3ccccc3)CC2)=C(CCCCN)N1` (stereo not drawn) [Example 171, 2-(4-Aminobutyl)-5-carboxamido-6-ethyl-1,4-dihydro-4-(4-nitrophenyl)-3-{N-[3-(4,4-diphenylpiperidin-1-yl)propyl]}carboxamidopyridine], the results for the Ki in assay [1] (setting [4]), in assay [2] (setting [7]) and in assay [3] (PKi alpha-1 1b) were 1.1 µM, 1.05 µM and 0.617 µM, respectively.
As to `CCC1=C(C(=O)NC)C(c2ccc([N+](=O)[O-])cc2)C(C(=O)NCCCN2CCC(c3ccccc3)(c3ccccc3)CC2)=C(CCCCN)N1` (stereo not drawn) [Example 172, 2-(4-Aminobutyl)-6-ethyl-1,4-dihydro-5-(N-methyl)carboxamido-4-(4-nitrophenyl)-3-{N-[3-(4,4-diphenylpiperidin-1-yl)propyl]}carboxamidopyridine], the Ki in assay [1] (setting [4]) is 2.34 µM; in assay [2] (setting [7]), 0.813 µM; in assay [3] (PKi alpha-1 1b) it was 0.617 µM.
For the molecule `CCC1=C(C(=O)NC)C(c2ccc([N+](=O)[O-])cc2)C(C(=O)NCCCN2CCC(c3ccccc3)(c3ccccc3)CC2)=C(CCCCOC)N1` (stereo not drawn) [Example 173, 6-Ethyl-1,4-dihydro-2-(4-methoxybutyl)-5-(N-methyl)carboxamido-4-(4-nitrophenyl)-3-{N-[3-(4,4-diphenylpiperidin-1-yl)propyl]}carboxamidopyridine], the Ki in assay [1] (setting [4]) was 0.269 µM; in assay [2] (setting [7]), 0.741 µM; in assay [3] (PKi alpha-1 1b) it was 0.427 µM.
Take `CCC1=C(C(=O)NC)C(c2ccc([N+](=O)[O-])cc2)C(C(=O)NCCCN2CCC(C(=O)OC)(c3ccccc3)CC2)=C(CCCCOC)N1` (stereo not drawn) [Example 174, 6-Ethyl-1,4-dihydro-2-(4-methoxybutyl)-3-{N-[3-(4-methoxycarbonyl-4-phenylpiperidin-1-yl)propyl]}carboxamido-5-(N-methyl)carboxamido-4-(4-nitrophenyl)pyridine]: the Ki in assay [1] (setting [4]) was 2 µM; in assay [2] (setting [5]), 3.98 µM; in assay [3] (setting [6]), 1.91 µM.
As for `CC(=O)C1=C(C)NC(CCCCN)=C(C(=O)NCCCN2CCC(c3ccccc3)(c3ccccc3)CC2)C1c1ccc([N+](=O)[O-])cc1` (stereo not drawn) [Example 176, 5-Acetyl-2-(4-aminobutyl)-1,4-dihydro-6-methyl-4-(4-nitrophenyl)-3-{N-[3-(4,4-diphenylpiperidin-1-yl)propyl]}carboxamidopyridine], the Ki in assay [1] (setting [4]) is 0.977 µM; in assay [2] (setting [7]) it was 0.309 µM; in assay [3] (PKi alpha-1 1b) it was 0.158 µM.
For the molecule `COC(=O)C1(c2ccccc2)CCN(CCCNC(=O)C2=C(CCCCN)NC(C)=C(C(N)=O)C2c2ccc([N+](=O)[O-])cc2)CC1` (stereo not drawn) [Example 177, 2-(4-Aminobutyl)-5-carboxamido-1,4-dihydro-3-{N-[3-(4-methoxycarbonyl-4-phenylpiperidin-1-yl)propyl]}carboxamido-6-methyl-4-(4-nitrophenyl)pyridine], the Ki is 1.66 µM in assay [1], 1.41 µM in assay [2] (PKi alpha-1 1a) and 0.759 µM in assay [3] (setting [6]).
For the molecule `COC(=O)C1(c2ccccc2)CCN(CCCNC(=O)C2=C(CCCCN)NC(C)=C(C(C)=O)C2c2ccc([N+](=O)[O-])cc2)CC1` (stereo not drawn) [Example 178, 5-Acetyl-2-(4-aminobutyl)-1,4-dihydro-3-{N-[3-(4-methoxycarbonyl-4-phenylpiperidin-1-yl)propyl]}carboxamido-6-methyl-4-(4-nitrophenyl) pyridine], the Ki is 0.912 µM in assay [1] (setting [4]), 0.832 µM in assay [2] (setting [5]) and 0.417 µM in assay [3] (setting [6]).
For `CCC1=C(C(=O)NC)C(c2ccc([N+](=O)[O-])cc2)C(C(=O)NCCCN2CCC(C(=O)OC)(c3ccccc3)CC2)=C(CC)N1` (stereo not drawn) [Example 179, 2,6-Diethyl-1,4-dihydro-3-{N-[3-(4-methoxycarbonyl-4-phenyl-piperidin-1-yl)propyl]}carboxamido-5-(N-methyl)carboxamido-4-(4-nitrophenyl)pyridine], the results for the Ki in assay [1], in assay [2] (PKi alpha-1 1a) and in assay [3] (setting [6]) were 3.31 µM, 4.17 µM and 1.07 µM, respectively.
On to `CCNC(=O)C1=C(CC)NC(CC)=C(C(=O)NCCCN2CCC(C(=O)OC)(c3ccccc3)CC2)C1c1ccc([N+](=O)[O-])cc1` (stereo not drawn) [Example 180, 2,6-Diethyl-1,4-dihydro-5-(N-ethyl)carboxamido-3-{N-[3-(4-methoxycarbonyl-4-phenylpiperidin-1-yl)propyl]}carboxamido-4-(4-nitrophenyl)pyridine], for which the Ki in assay [1] was 6.92 µM; in assay [2] (PKi alpha-1 1a) it was 3.02 µM; in assay [3] (setting [6]) it was 0.851 µM.
Take `CCNC(=O)C1=C(CC)NC(CC)=C(C(=O)NCCCN2CCC(C(=O)OCC)(c3ccccc3)CC2)C1c1ccc([N+](=O)[O-])cc1` (stereo not drawn) [Example 182, 2,6-Diethyl-1,4-dihydro-3-{N-[3-(4-ethoxycarbonyl-4-phenylpiperidin-1-yl)propyl]}carboxamido-5-(N-ethyl)carboxamido-4(4-nitrophenyl)pyridine]: the Ki in assay [1] is 2.19 µM; in assay [2] (PKi alpha-1 1a), 3.39 µM; in assay [3] (setting [6]) it was 1.12 µM.
As for `COC(=O)C1(c2ccccc2)CCN(CCCNC(=O)C2=C(COCCN=[N+]=[N-])NC(C)=C(C(N)=O)C2c2ccc([N+](=O)[O-])cc2)CC1` (stereo not drawn) [Example 183, 2-[(2-Azidoethoxy)methyl]-5-carboxamido-1,4-dihydro-3-{N-[3-(4-methoxycarbonyl-4-phenylpiperidin-1-yl)propyl]}carboxamido-6-methyl-4-(4-nitrophenyl)pyridine], the Ki is 1.05 µM in assay [1] (setting [4]), 0.501 µM in assay [2] (setting [5]) and 0.229 µM in assay [3] (setting [6]).
